Measurements from PMC5735376, “Dual Level Statistical Investigation of Equilibrium Solubility in Simulated Fasted and Fed Intestinal Fluid” (Molecular Pharmaceutics, 2017).
Where two headings read alike, the source gives them in different places.

Assays:
[1] = Equilibrium solubility in simulated intestinal fluid, dual level DoE, fasted arm; assay type: physicochemical; details: for direction of monoglyceride effect on solubility (standardized effect): fasted arm, Figure 3; for statistical significance of DoE factor BS:PL on equilibrium solubility / statistical significance of DoE factor bile salt on equilibrium solubility / statistical significance of DoE factor cholesterol on equilibrium solubility / statistical significance of DoE factor lecithin on equilibrium solubility / statistical significance of DoE factor monoglyceride on equilibrium solubility / statistical significance of DoE factor pH on equilibrium solubility / statistical significance of DoE factor sodium oleate on equilibrium solubility: fasted, current study (Figure 3); for significant DoE factors influencing solubility: fasted and fed study arms together (14 possible values per drug), significance ±4
Description: (§1) For each media parameter (bile salt, lecithin, sodium oleate, monoglyceride, cholesterol, pH and BS: PL ratio) lower and upper limit concentration values for fasted and fed states were defined, Table 1. Using Minitab 17.2.1 and a custom experimental design, a 1/16 of the full factorial DoE with the seven factors and two levels (lower and upper limits) was constructed (8 experiments around the upper and lower levels plus two center points) separately for the fasted and the fed states. These two tables were then applied as an input for a factorial custom design of experiment which combined the fasted and fed using all 20 data points to provide an overall analysis. The study therefore consists of three arms, two smaller (10 data point) fasted and fed arms, which are then merged into a larger (20 data point) combined arm.
(§2) When designing and analyzing the DoE, only a factor’s main effects and 2 way interactions have been considered and 3 way interactions or more were not included. For each DoE the magnitude for each factor’s effect on equilibrium solubility was determined by the standardized effect value for all of the individual factors and the significant 2-way interactions. This value was used to articulate whether these factors are increasing or decreasing drug solubility.
(§3) The solution was prepared by the addition of an excess amount (above the estimated solubility) of solid for each compound investigated to a centrifuge tube (15 mL Corning Centristar cap, polypropylene RNase/DNase free, nonpyrogenic) followed by the addition of each component of the simulated intestinal fluid media according to the run order generated by the DoE. After all of the media components were added, pH was adjusted to 5, 6, or 7 according to the run order using 0.1 M HCl or 0.1 M KOH and tubes were capped and placed on an orbital shaker (OS 5 basic Yellowline, IKA, Germany) for 1 h after which the pH was readjusted if required. The 20 different tubes were then shaken in a tube rotator for 24 h at 40 rpm at 37 °C to simulate intestinal fluid conditions. After 24 h, a 1 mL amount was taken from each of the 20 tubes and transferred to a 1.5 mL Eppendorf tube then centrifuged at 15 000 rpm for 5 min. Following centrifugation 0.5 mL of the supernatant solution was transferred to an HPLC vial to analyze drug solubility using HPLC (Table 4).

[2] = Equilibrium solubility in simulated intestinal fluid, dual level DoE, fed arm; assay type: physicochemical; details: for statistical significance of DoE factor BS:PL on equilibrium solubility / statistical significance of DoE factor bile salt on equilibrium solubility / statistical significance of DoE factor cholesterol on equilibrium solubility / statistical significance of DoE factor lecithin on equilibrium solubility / statistical significance of DoE factor monoglyceride on equilibrium solubility / statistical significance of DoE factor pH on equilibrium solubility / statistical significance of DoE factor sodium oleate on equilibrium solubility: fed, current study (Figure 3)
Description: as §1, §2, §3

[3] = Equilibrium solubility in simulated intestinal fluid, dual level DoE, combined fasted and fed arm; assay type: physicochemical; details: combined arm; for significance of sodium oleate for solubility: Figure 4, significance ±2, positive solubility impact
Description: as §1, §2, §3

[4] = Statistical comparison of equilibrium solubility data sets (Mann-Whitney test / two-sample t-test); assay type: physicochemical; details: for statistical comparison of fasted against fed equilibrium solubility: current dual level DoE, where significant, fasted solubility lower than fed; for statistical comparison of dual level fasted with published fasted equilibrium solubility: current fasted arm vs published fasted DoE; for statistical comparison of dual level fed with published fed equilibrium solubility: current fed arm vs published fed DoE
Description: The Kolmogorov normality test was used in Minitab to assess the normality distribution of each data set. A Mann–Whitney test was used to evaluate the median between two data sets (not normally distributed) and the two-sample t-test was used to evaluate the mean of two data sets (normally distributed).

[5] = set-up: method as in ref 13, Figure 2; details: fasted, published; Figure 2; cited from earlier work
[6] = set-up: method as in ref 14, Figure 2; details: fed, published; Figure 2; cited from earlier work

Row | Structure (SMILES) | statistical significance of DoE factor BS:PL on equilibrium solubility [1] | statistical significance of DoE factor bile salt on equilibrium solubility [1] | statistical significance of DoE factor cholesterol on equilibrium solubility [1] | statistical significance of DoE factor lecithin on equilibrium solubility [1] | statistical significance of DoE factor monoglyceride on equilibrium solubility [1] | statistical significance of DoE factor pH on equilibrium solubility [1] | statistical significance of DoE factor sodium oleate on equilibrium solubility [1] | statistical significance of DoE factor BS:PL on equilibrium solubility [2] | statistical significance of DoE factor bile salt on equilibrium solubility [2] | statistical significance of DoE factor cholesterol on equilibrium solubility [2] | statistical significance of DoE factor lecithin on equilibrium solubility [2] | statistical significance of DoE factor monoglyceride on equilibrium solubility [2] | statistical significance of DoE factor pH on equilibrium solubility [2] | statistical significance of DoE factor sodium oleate on equilibrium solubility [2] | statistical comparison of fasted against fed equilibrium solubility [4] | statistical significance of DoE factor bile salt on equilibrium solubility [5] | statistical significance of DoE factor lecithin on equilibrium solubility [5] | statistical significance of DoE factor pH on equilibrium solubility [5] | statistical significance of DoE factor sodium oleate on equilibrium solubility [5] | statistical significance of DoE factor bile salt on equilibrium solubility [6] | other results
1 | C[C@@H](O[C@H]1OCCN(Cc2n[nH]c(=O)[nH]2)[C@H]1c1ccc(F)cc1)c1cc(C(F)(F)F)cc(C(F)(F)F)c1 [aprepitant] | NS ^e | NS ^e ^g | NS ^e | S ^d ^g | S ^d | NS ^e ^g | S ^d | NS ^e | NS ^e ^g | NS ^e | NS ^e ^g | NS ^e | NS ^e ^g | NS ^e ^g | no statistically significant difference | S ^d ^g | NS ^e ^g | S ^d ^g | S ^d | S ^d ^g | direction of monoglyceride effect on solubility (standardized effect) [1]: positively impacts; significance of lecithin for solubility ([3]; Figure 4, significance ±2): significant; significance of sodium oleate for solubility [3]: significant; statistical comparison of dual level fasted with published fasted equilibrium solubility [4]: significantly different; statistical comparison of dual level fed with published fed equilibrium solubility [4]: significantly different; statistical significance of DoE factor lecithin on equilibrium solubility [6]: S ^d ^g; statistical significance of DoE factor monoglyceride on equilibrium solubility [6]: NS ^e; statistical significance of DoE factor pH on equilibrium solubility [6]: S ^d ^g; statistical significance of DoE factor sodium oleate on equilibrium solubility [6]: S ^d ^g
2 | COc1ccccc1OCCNCC(O)COc1cccc2[nH]c3ccccc3c12 (stereo not shown) [carvedilol] | NS ^e | NS ^e ^g | NS ^e | NS ^e ^g | NS ^e | NS ^e ^g | NS ^e ^g | NS ^e | NS ^e ^g | NS ^e | NS ^e | NS ^e ^g | NS ^e ^g | NS ^e ^g | significant difference | S ^d ^g | S ^d ^g | S ^d ^g | S ^d ^g | S ^d ^g | significant DoE factors influencing solubility [1]: no significant factors; significance of sodium oleate for solubility [3]: significant; statistical comparison of dual level fed with published fed equilibrium solubility [4]: significantly different; statistical significance of DoE factor lecithin on equilibrium solubility [6]: NS ^e; statistical significance of DoE factor monoglyceride on equilibrium solubility [6]: S ^d ^g; statistical significance of DoE factor pH on equilibrium solubility [6]: S ^d ^g; statistical significance of DoE factor sodium oleate on equilibrium solubility [6]: S ^d ^g
3 | CCOC(=O)C1=C(C)NC(C)=C(C(=O)OC)C1c1cccc(Cl)c1Cl (stereo not shown) [felodipine] | NS ^e | NS ^e ^g | NS ^e | S ^d | S ^d | S ^d | S ^d | NS ^e | S ^d | NS ^e | S ^d | S ^d ^g | NS ^e ^g | S ^d | significant difference | S ^d ^g | S ^d | S ^d | S ^d | S ^d | significant DoE factors influencing solubility [1]: eight out of a possible 14; direction of monoglyceride effect on solubility (standardized effect) [1]: positive effect; direction of monoglyceride effect on solubility (standardized effect) ([2]; fed arm, Figure 3): positive effect; significance of bile salt for solubility ([3]; Figure 4, significance ±2): significant; significance of cholesterol for solubility ([3]; Figure 4, significance ±2): significant; statistical comparison of dual level fasted with published fasted equilibrium solubility [4]: significantly different; statistical significance of DoE factor lecithin on equilibrium solubility [6]: S ^d; statistical significance of DoE factor monoglyceride on equilibrium solubility [6]: NS ^e ^g; statistical significance of DoE factor pH on equilibrium solubility [6]: S ^d ^g; statistical significance of DoE factor sodium oleate on equilibrium solubility [6]: S ^d
4 | COc1ccc2c(c1)c(CC(=O)O)c(C)n2C(=O)c1ccc(Cl)cc1 [indomethacin] | NS ^e | NS ^e ^g | NS ^e | NS ^e | NS ^e | S ^d | NS ^e ^g | NS ^e | NS ^e ^g | NS ^e | NS ^e | NS ^e | S ^d | NS ^e ^g | no statistically significant difference | S ^d ^g | NS ^e | S ^d | S ^d ^g | S ^d ^g | significance of pH for solubility ([3]; Figure 4, significance ±2): significant; significant two way factor interactions on solubility ([3]; eight two way interactions, Figure 4): no significant interactions; statistical significance of DoE factor lecithin on equilibrium solubility [6]: NS ^e; statistical significance of DoE factor monoglyceride on equilibrium solubility [6]: NS ^e; statistical significance of DoE factor pH on equilibrium solubility [6]: S ^d; statistical significance of DoE factor sodium oleate on equilibrium solubility [6]: S ^d ^g
